The target of this assay is T1, PLK1 (Homo sapiens, UniProt P53350).
T1 construct: endogenous in cells; host or cells: HeLa
Put plainly: PLK1 protein degradation in HeLa cells, Western blotting (PLK1/GAPDH ratio). The following applies: for DC50 / Dmax: 6 hours compound incubation; for DC50: measured only if the grade of Dmax is A or B; for Dmax: thymidine block and release, 10 points three-fold from 3 μM, PLK1 to GAPDH ratio, read-out: Dmax. In kind it is cell-based. The method in brief:
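PLK1 level measured by Western blot as PLK1/GAPDH in HeLa lysates (15 μg protein per lane). Cells were blocked with 2 mM thymidine 24 h, released 4 h, and exposed 6 h to compound, 10 concentrations, 3-fold steps, top 3 μM.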
(In general: In western blotting, separated proteins are transferred to a membrane and probed.)

What is called DC50 is the concentration at which degradation of the target reaches its halfway point. Broadly, the Dmax is the greatest extent of degradation seen.

T1 sequence (P53350 whole entry): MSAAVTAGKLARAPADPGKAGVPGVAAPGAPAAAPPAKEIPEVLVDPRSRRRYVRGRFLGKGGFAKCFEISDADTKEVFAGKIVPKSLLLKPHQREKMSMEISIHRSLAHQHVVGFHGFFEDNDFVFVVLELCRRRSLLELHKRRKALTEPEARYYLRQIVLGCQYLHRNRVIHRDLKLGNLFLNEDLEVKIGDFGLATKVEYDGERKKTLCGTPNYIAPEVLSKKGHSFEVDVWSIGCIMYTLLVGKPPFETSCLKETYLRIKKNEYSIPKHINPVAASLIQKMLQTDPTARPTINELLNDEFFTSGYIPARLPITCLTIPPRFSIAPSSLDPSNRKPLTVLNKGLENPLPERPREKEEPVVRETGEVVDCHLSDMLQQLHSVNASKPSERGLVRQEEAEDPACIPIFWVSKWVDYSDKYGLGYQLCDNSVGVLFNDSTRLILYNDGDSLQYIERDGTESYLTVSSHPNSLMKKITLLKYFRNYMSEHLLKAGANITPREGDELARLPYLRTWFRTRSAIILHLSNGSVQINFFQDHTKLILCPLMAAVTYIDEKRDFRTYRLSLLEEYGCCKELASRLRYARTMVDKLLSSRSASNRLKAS

In the case of `COc1cc(C(=O)NC2CCN(C[C@@H]3C[C@@H]3CNc3cccc4c3C(=O)N(C3CCC(=O)NC3=O)C4=O)CC2)c(F)cc1Nc1ncc2c(n1)N(C1CCCC1)CC(F)(F)C(=O)N2C` (stereo partly drawn) [Compound 48, 4-((9-cyclopentyl-7,7-difluoro-5-methyl-6-oxo-6,7,8,9-tetrahydro-5H-pyrimido[4,5-b][1,4]diazepin-2-yl)amino)-N-(1-(((1R,2S)-2-(((2-(2,6-dioxopiperidin-3-yl)-1,3-dioxoisoindolin-4-yl)amino)methyl)cyclopropyl)methyl)piperidin-4-yl)-2-fluoro-5-methoxybenzamide], the DC50 was no more than 500 nM and the Dmax lay within 60 to 80%.
On the same counts, the results for `COc1cc(C(=O)NC2CCN(CCCCCCCc3cncc(CNC(=O)COc4cccc5c4C(=O)N(C4CCC(=O)NC4=O)C5=O)c3)CC2)c(F)cc1Nc1ncc2c(n1)N(C1CCCC1)CC(F)(F)C(=O)N2C` (stereo not drawn) [Compound 64, 4-((9-cyclopentyl-7,7-difluoro-5-methyl-6-oxo-6,7,8,9-tetrahydro-5H-pyrimido[4,5-b][1,4]diazepin-2-yl)amino)-N-(1-(7-(5-((2-((2-(2,6-dioxopiperidin-3-yl)-1,3-dioxoisoindolin-4-yl)oxy)acetamido)methyl)pyridin-3-yl)heptyl)piperidin-4-yl)-2-fluoro-5-methoxybenzamide] are no more than 50 nM and no less than 80%.
As for `COc1cc(C(=O)N[C@H]2CCN(C(=O)CCN3CCN(c4ccc5c(c4)C(=O)N(C4CCC(=O)NC4=O)C5=O)CC3)C2)c(F)cc1Nc1ncc2c(n1)N(C1CCCC1)CC(F)(F)C(=O)N2C` (stereo partly drawn) [Compound 136, 4-((9-cyclopentyl-7,7-difluoro-5-methyl-6-oxo-6,7,8,9-tetrahydro-5H-pyrimido[4,5-b][1,4]diazepin-2-yl)amino)-N-((3S)-1-(3-(4-(2-(2,6-dioxopiperidin-3-yl)-1,3-dioxoisoindolin-5-yl)piperazin-1-yl)propanoyl)pyrrolidin-3-yl)-2-fluoro-5-methoxybenzamide], the DC50 is no more than 50 nM and the greatest degradation seen (Dmax) was no less than 80%.
For `COc1cc(C(=O)N[C@H]2CCN(C(=O)CCCC(=O)N3CCN(c4ccc5c(c4)C(=O)N(C4CCC(=O)NC4=O)C5=O)CC3)C2)c(F)cc1Nc1ncc2c(n1)N(C1CCCC1)CC(F)(F)C(=O)N2C` (stereo partly drawn) [Compound 147, 4-((9-cyclopentyl-7,7-difluoro-5-methyl-6-oxo-6,7,8,9-tetrahydro-5H-pyrimido[4,5-b][1,4]diazepin-2-yl)amino)-N-((3S)-1-(5-(4-(2-(2,6-dioxopiperidin-3-yl)-1,3-dioxoisoindolin-5-yl)piperazin-1-yl)-5-oxopentanoyl)pyrrolidin-3-yl)-2-fluoro-5-methoxybenzamide], in that order: no more than 500 nM and 60 to 80%.
On the same counts, the results for `COc1cc(C(=O)NC2CCN(CCOCCOCCOCCOCCNc3cccc4nnn(C5CCC(=O)NC5=O)c(=O)c34)CC2)c(F)cc1Nc1ncc2c(n1)N(C1CCCC1)CC(F)(F)C(=O)N2C` (stereo not drawn) [Compound 78, 4-((9-cyclopentyl-7,7-difluoro-5-methyl-6-oxo-6,7,8,9-tetrahydro-5H-pyrimido[4,5-b][1,4]diazepin-2-yl)amino)-N-(1-(14-((3-(2,6-dioxopiperidin-3-yl)-4-oxo-3,4-dihydrobenzo[d][1,2,3]triazin-5-yl)amino)-3,6,9,12-tetraoxatetradecyl)piperidin-4-yl)-2-fluoro-5-methoxybenzamide] are no more than 50 nM and no less than 80%.
For the compound `COc1cc(C(=O)NC2CCN(CCOCCCCCCCCOCCNc3cccc4c3C(=O)N(C3CCC(=O)NC3=O)C4=O)CC2)c(F)cc1Nc1ncc2c(n1)N(C1CCCC1)CC(F)(F)C(=O)N2C` (stereo not drawn) [Compound 22, 4-((9-cyclopentyl-7,7-difluoro-5-methyl-6-oxo-6,7,8,9-tetrahydro-5H-pyrimido[4,5-b][1,4]diazepin-2-yl)amino)-N-(1-(2-((8-(2-((2-(2,6-dioxopiperidin-3-yl)-1,3-dioxoisoindolin-4-yl)amino)ethoxy)octyl)oxy)ethyl)piperidin-4-yl)-2-fluoro-5-methoxybenzamide], the half-maximal degradation concentration (DC50) is no more than 500 nM and the Dmax was in the range of 60 to 80%.
`COc1cc(C(=O)N[C@H]2CC[C@H](N3CCN(CCOCCNc4cccc5c4C(=O)N(C4CCC(=O)NC4=O)C5=O)CC3)CC2)c(F)cc1Nc1ncc2c(n1)N(C1CCCC1)CC(F)(F)C(=O)N2C` (stereo partly drawn) [Example 103, 4-((9-cyclopentyl-7,7-difluoro-5-methyl-6-oxo-6,7,8,9-tetrahydro-5H-pyrimido[4,5-b][1,4]diazepin-2-yl)amino)-N-((1r,4r)-4-(4-(2-(2-((2-(2,6-dioxopiperidin-3-yl)-1,3-dioxoisoindolin-4-yl)amino)ethoxy)ethyl)piperazin-1-yl)cyclohexyl)-2-fluoro-5-methoxybenzamide]: the DC50 is no more than 50 nM and the Dmax was no less than 80%.
For `COc1cc(C(=O)NC2CCN(CCCCOCCCOCCOCCNc3cccc4c3C(=O)N(C3CCC(=O)NC3=O)C4=O)CC2)c(F)cc1Nc1ncc2c(n1)N(C1CCCC1)CC(F)(F)C(=O)N2C` (stereo not drawn) [Compound 23, 4-((9-cyclopentyl-7,7-difluoro-5-methyl-6-oxo-6,7,8,9-tetrahydro-5H-pyrimido[4,5-b][1,4]diazepin-2-yl)amino)-N-(1-(4-(3-(2-(2-((2-(2,6-dioxopiperidin-3-yl)-1,3-dioxoisoindolin-4-yl)amino)ethoxy)ethoxy)propoxy)butyl)piperidin-4-yl)-2-fluoro-5-methoxybenzamide], in that order: no more than 50 nM and no less than 80%.
Regarding `COc1cc(C(=O)NCCOCCNc2cccc3c2C(=O)N(C2CCC(=O)NC2=O)C3=O)c(F)cc1Nc1ncc2c(n1)N(C1CCCC1)CC(F)(F)C(=O)N2C` (stereo not drawn) [Compound 151, 4-((9-cyclopentyl-7,7-difluoro-5-methyl-6-oxo-6,7,8,9-tetrahydro-5H-pyrimido[4,5-b][1,4]diazepin-2-yl)amino)-N-(2-(2-((2-(2,6-dioxopiperidin-3-yl)-1,3-dioxoisoindolin-4-yl)amino)ethoxy)ethyl)-2-fluoro-5-methoxybenzamide], the DC50 was no more than 500 nM and the Dmax lay in the range of 60 to 80%.
On the same counts, the results for `COc1cc(C(=O)N[C@H]2CCN(C(=O)COCCOCCNc3cccc4c3C(=O)N(C3CCC(=O)NC3=O)C4=O)C2)c(F)cc1Nc1ncc2c(n1)N(C1CCCC1)CC(F)(F)C(=O)N2C` (stereo partly drawn) [Compound 115, 4-((9-cyclopentyl-7,7-difluoro-5-methyl-6-oxo-6,7,8,9-tetrahydro-5H-pyrimido[4,5-b][1,4]diazepin-2-yl)amino)-N-((3S)-1-(2-(2-(2-((2-(2,6-dioxopiperidin-3-yl)-1,3-dioxoisoindolin-4-yl)amino)ethoxy)ethoxy)acetyl)pyrrolidin-3-yl)-2-fluoro-5-methoxybenzamide] are no more than 50 nM and no less than 80%.
On the same counts, the results for `COc1cc(C(=O)NC2CCN(C(=O)CN3CCN(c4cccc5c4C(=O)N(C4CCC(=O)NC4=O)C5=O)CC3)CC2)c(F)cc1Nc1ncc2c(n1)N(C1CCCC1)CC(F)(F)C(=O)N2C` (stereo not drawn) [Compound 70, 4-((9-cyclopentyl-7,7-difluoro-5-methyl-6-oxo-6,7,8,9-tetrahydro-5H-pyrimido[4,5-b][1,4]diazepin-2-yl)amino)-N-(1-(2-(4-(2-(2,6-dioxopiperidin-3-yl)-1,3-dioxoisoindolin-4-yl)piperazin-1-yl)acetyl)piperidin-4-yl)-2-fluoro-5-methoxybenzamide] are no more than 500 nM and 60 to 80%.
For `COc1cc(C(=O)NC2CCN(CCCCCCCCNc3cccc4c3C(=O)N(C3CCC(=O)NC3=O)C4=O)CC2)c(F)cc1Nc1ncc2c(n1)N(C1CCCC1)CC(F)(F)C(=O)N2C` (stereo not drawn) [Compound 12, 4-((9-cyclopentyl-7,7-difluoro-5-methyl-6-oxo-6,7,8,9-tetrahydro-5H-pyrimido[4,5-b][1,4]diazepin-2-yl)amino)-N-(1-(8-((2-(2,6-dioxopiperidin-3-yl)-1,3-dioxoisoindolin-4-yl)amino)octyl)piperidin-4-yl)-2-fluoro-5-methoxybenzamide], in that order: greater than 500 nM and 60 to 80%.
As for `COc1cc(C(=O)NC2CCN(CCCCNc3cccc4c3C(=O)N(C3CCC(=O)NC3=O)C4=O)CC2)c(F)cc1Nc1ncc2c(n1)N(C1CCCC1)CC(F)(F)C(=O)N2C` (stereo not drawn) [Compound 8, 4-((9-cyclopentyl-7,7-difluoro-5-methyl-6-oxo-6,7,8,9-tetrahydro-5H-pyrimido[4,5-b][1,4]diazepin-2-yl)amino)-N-(1-(4-((2-(2,6-dioxopiperidin-3-yl)-1,3-dioxoisoindolin-4-yl)amino)butyl)piperidin-4-yl)-2-fluoro-5-methoxybenzamide], the Dmax is less than 60%.
As for `COc1cc(C(=O)NC2CCN(CCOCCNc3cccc4c3C(=O)N(C3CCC(=O)NC3=O)C4=O)CC2)c(F)cc1Nc1ncc2c(n1)N(C1CCCC1)CC(F)(F)C(=O)N2C` (stereo not drawn) [Compound 1, 4-((9-cyclopentyl-7,7-difluoro-5-methyl-6-oxo-6,7,8,9-tetrahydro-5H-pyrimido[4,5-b][1,4]diazepin-2-yl)amino)-N-(1-(2-(2-((2-(2,6-dioxopiperidin-3-yl)-1,3-dioxoisoindolin-4-yl)amino)ethoxy)ethyl)piperidin-4-yl)-2-fluoro-5-methoxybenzamide], the DC50 was no more than 50 nM and the Dmax is no less than 80%. Besides, the “PLK1 protein degradability (western blot, FIG. 1 and 2)” value (in comparison with Comparative Compounds) is on record as “excellent PLK1 protein degradability”.
As for `COc1cc(C(=O)N[C@H]2CCN(C(=O)COCCOCCOCCOCCNc3cccc4c3C(=O)N(C3CCC(=O)NC3=O)C4=O)C2)c(F)cc1Nc1ncc2c(n1)N(C1CCCC1)CC(F)(F)C(=O)N2C` (stereo partly drawn) [Compound 116, 4-((9-cyclopentyl-7,7-difluoro-5-methyl-6-oxo-6,7,8,9-tetrahydro-5H-pyrimido[4,5-b][1,4]diazepin-2-yl)amino)-N-((3S)-1-(14-((2-(2,6-dioxopiperidin-3-yl)-1,3-dioxoisoindolin-4-yl)amino)-3,6,9,12-tetraoxatetradecanoyl)pyrrolidin-3-yl)-2-fluoro-5-methoxybenzamide], the DC50 is no more than 50 nM and the Dmax is no less than 80%.

Source of the values: patent US20230372498A1, “PLK1 SELECTIVE DEGRADATION INDUCING COMPOUND” (UPPTHERA, priority 2020, published 2023).
